Source: patent US6919380B2, “Derivatives of C2-substituted indan-1-ol systems for the prophylaxis or treatment of obesity” (Aventis Pharma Deutschland GmbH., priority 2001, dated 2005)

Key:
[1] = system: female NMRI mice; experiment: Anorectic action: cumulative evaporated milk consumption after removal of feed for 24 hours; type: in vivo, mouse; details: dose 10 mg/kg (ip or po, not specified)
Experimental: The activity of the compounds of the formula I was assayed as follows: […]
The anorectic action was tested on female NMRI mice. After removal of feed for 24 hours, the preparation to be tested was administered intraperitoneally (ip) or by gavage (po). The animals were housed singly and, with free access to drinking water, they were offered evaporated milk 30 minutes after administration of the preparation. The consumption of evaporated milk was determined and the general behavior of the animals was monitored every half an hour for 7 hours. The measured milk consumption was compared to that of vehicle-treated control animals.

CC(=O)OC1c2ccc(Cl)cc2CC1S(C)(=O)=O (stereo not drawn) [Example 1, 1-Acetoxy-5-chloro-2-methylsulfonylindane]
melting point: 136 °C | Reduction in cumulative milk consumption as % of the control ([1]; compared with control animals): 81% | cumulative milk consumption by treated animals ([1]; milk offered 30 minutes after administration, monitored for 7 hours): 5/0.28 ml
